What was measured:
physchem [1] = settings: phosphate buffer with glutathione, pH 7.4
Homo sapiens = species: Homo sapiens; experiment: Selectivity index, ratio of IC50 for wild-type EGFR autophosphorylation in human A549 cells to IC50 for EGFR T790M/L858R double mutant autophosphorylation in human H1975 cells; type: cell-based
physchem [2] = settings: octanol/water
in vitro [3] = settings: human, liver microsomes
in vitro [4] = settings: dog, MDCK

## C=CC(=O)Nc1cc2c(Nc3ccc(F)c(Cl)c3)ncnc2cc1OCCCN1CCOCC1 [CANERTINIB]
Physchem [1]
  half-life at 2 h, 1 µM: 21 min

## C=CC(=O)N1CC[C@@H](Nc2nc(Nc3ccc(N4CCN(C)CC4)cc3)c3ncn(C(C)C)c3n2)C1
Homo sapiens
  Ratio IC50: 13
Physchem [2]
  logD: 2.5

## C=CC(=O)N[C@@H]1CCN(c2nc(Nc3cnn(C)c3)c3ncn(C(C)C)c3n2)C1
Physchem [2]
  logD: 2.7

## C=CC(=O)N[C@H]1CCN(c2nc(Nc3ccc(N4CCN(C)CC4)cc3)c3ncn(C(C)C)c3n2)C1
Homo sapiens
  Ratio IC50: 15
Physchem [2]
  logD: 2.2

## C=CC(=O)N[C@H]1CCN(c2nc(Nc3cnn(C)c3)c3ncn(C(C)C)c3n2)C1
Homo sapiens
  Ratio IC50: 13
Physchem [2]
  logD: 2.3

## C=CC(=O)N[C@@H]1CN(c2nc(Nc3cn(C)nc3CC)c3ncn(C(C)C)c3n2)C[C@H]1F
Physchem [2]
  logD: 3.5
In vitro [3]
  microsomal CLint at […], 1 µM: 81 µL/min/mg

## C=CC(=O)N[C@@H]1CN(c2nc(Nc3cn(C)nc3OC)c3nc[nH]c3n2)C[C@H]1F
Physchem [2]
  logD: 1.8
In vitro [3]
  microsomal CLint at […], 1 µM: 8 µL/min/mg
In vitro [4]
  Papp: 2 ×10⁻⁶ cm/s

Reference: ChEMBL document CHEMBL4177539, “Discovery of N-((3R,4R)-4-Fluoro-1-(6-((3-methoxy-1-methyl-1H-pyrazol-4-yl)amino)-9-methyl-9H-purin-2-yl)pyrrolidine-3-yl)acrylamide (PF-06747775) through Structure-Based Drug Design: A High Affinity Irreversible Inhibitor Targeting Oncogenic EGFR Mutants with Selectivity over Wild-Type EGFR” (J Med Chem, 2017)
